Reference: patent EP0319030A1, “Aminopropanol derivatives of 1,4:3,6-dianhydro-hexitol nitrates, processes for their preparation and their use as medicaments” (Heinrich Mack Nachf., priority 1987, dated 1989)
Marks after values point to notes of the source that are not given here.

Key:
Assay type in all cases: in vivo
rats = assay: Survival rate after acute coronary ligature, method of I. Lepran et al.; details: 100.0 mg/kg orally 5 minutes before ligature
Source text: (§1) In particular, they have a pronounced cardiovascular action. On isolated strips of veins from dogs, they act against the K⁺-induced contraction in a lower concentration than on aorta strips. On isolated hearts from guinea pigs, they increase coronary flow as a function of the dose. On anesthetized rats, they prevent lypressin coronary spasm as a function of the dose and significiantly increase the survival rate of rats following acute cardiac infarction. On normotensive conscious dogs, they lower the systolic blood pressure for a period of 6-8 hours after oral administration. On artifically respirated anesthetized, thoraxotomized dogs, they reduce the mean arterial pressure, the left ventricular systolic pressure, the left ventricular end diastolic pressure and the pressure in the Arteria pulmonalis and reduce the peripheral vascular resistance. In contrast to the known organic nitrate esters, they also lead to a long-lasting reduction in the systolic blood pressure of spontaneously hypertensive rats. Such an action profile is not known for any of the substances of similar structure which have already been described.

anesthetized dogs = assay: Cardiovascular actions following intra-venous administration, opened thorax and artificial respiration; details: opened thorax, artificial respiration
Source text: as §1

conscious beagle dogs = assay: Systolic blood pressure and heart rate following peroral administration; details: 5.0 mg/kg peroral, mean ± SEM
Source text: as §1

anesthetized rat = assay: Lypressin-induced T-wave increase in the ECG (lypressin coronary spasm), method of M. Leitold et al.
Source text: as §1

Mice = assay: Peroral tolerance in mice; details: mouse, in vivo
Source text: Set forth below is data obtained on the compounds of Examples 17, 19 and 20 that illustrates the pharmacological action of the compounds of the present invention.

## COc1ccccc1N1CCN(CC(O)CO[C@H]2CO[C@H]3[C@@H]2OC[C@@H]3O[N+](=O)[O-])CC1 (some centres unmarked) [Example 20, 5-O-<3-[4-(2-Methoxyphenyl)-piprazinyl]-2-hydroxypropyl>-isoidide-2-nitrate]
rats; control 21/80
  Number of rats surviving after an acute coronary ligature, 24 hours: 14/20*
  Number of rats surviving after an acute coronary ligature, 7 days: 14/20*
rats; control 23/80
  Number of rats surviving after an acute coronary ligature, 60 minutes: 14/20*
Anesthetized dogs; 30 µg/kg intra-venous
  CO, Action of substance: 0.81 ± 0.3 l/M
  CO, Change: 0.38 ± 0.1 l/M
  CO, Duration of action: 12 ± 6 min
  HR (heart rate), Action of substance: 192 ± 10 Bts/M
  HR (heart rate), Change: 2 ± 2 Bts/M
  HR (heart rate), Duration of action: 11 ± 4 min
  LVEDP (left ventricular enddiastolic pressure), Action of substance: 7.5 ± 1.2 mmHg
  LVEDP (left ventricular enddiastolic pressure), Change: 0.1 ± 0.2 mmHg
  LVEDP (left ventricular enddiastolic pressure), Duration of action: 9 ± 7 min
  LVSP (left ventricular systolic blood pressure), Action of substance: 116 ± 10 mmHg
  LVSP (left ventricular systolic blood pressure), Change: 22 ± 4 mmHg
  LVSP (left ventricular systolic blood pressure), Duration of action: 8 ± 3 min
  MAP (mean arterial blood pressure), Action of substance: 66 ± 3 mmHg
  MAP (mean arterial blood pressure), Change: 25 ± 5 mmHg
  MAP (mean arterial blood pressure), Duration of action: 15 ± 2 min
  PAP, Action of substance: 16.0 ± 1 mmHg
  PAP, Change: 0.4 ± 0.2 mmHg
  PAP, Duration of action: 11 ± 6 min
  SV, Action of substance: 7.5 ± 2 mL/s
  SV, Change: 2.3 ± 1 mL/s
  SV, Duration of action: 12 ± 6 min
  TPR (total peripheral vascular resistance), Action of substance: 63 ± 13 mmHg/ml
  TPR (total peripheral vascular resistance), Change: 2 ± 13 mmHg/ml
  TPR (total peripheral vascular resistance), Duration of action: 4 ± 2 min
  dp/dtmax (maximum rate of increase in the left ventricular pressure), Action of substance: 2321 ± 363 mmHg/s
  dp/dtmax (maximum rate of increase in the left ventricular pressure), Change: 758 ± 269 mmHg/s
  dp/dtmax (maximum rate of increase in the left ventricular pressure), Duration of action: 15 ± 4 min
Anesthetized dogs; 300 µg/kg intra-venous
  CO, Action of substance: 1.32 ± 0.7 l/M
  CO, Change: 0.21 ± 0.6 l/M
  CO, Duration of action: 35 ± 23 min
  HR (heart rate), Action of substance: 197 ± 12 Bts/M
  LVEDP (left ventricular enddiastolic pressure), Action of substance: 6.8 ± 1 mmHg
  LVEDP (left ventricular enddiastolic pressure), Change: 1.1 ± 1 mmHg
  LVEDP (left ventricular enddiastolic pressure), Duration of action: 18 ± 13 min
  LVSP (left ventricular systolic blood pressure), Action of substance: 111 ± 11 mmHg
  LVSP (left ventricular systolic blood pressure), Change: 34 ± 5 mmHg
  LVSP (left ventricular systolic blood pressure), Duration of action: 34 ± 12 min
  MAP (mean arterial blood pressure), Action of substance: 58 ± 2 mmHg
  MAP (mean arterial blood pressure), Change: 39 ± 3 mmHg
  MAP (mean arterial blood pressure), Duration of action: 35 ± 15 min
  PAP, Action of substance: 15.7 ± 1 mmHg
  PAP, Change: 0.7 ± 0.3 mmHg
  PAP, Duration of action: 14 ± 13 min
  SV, Action of substance: 7.2 ± 2.5 mL/s
  SV, Change: 0.5 ± 2.9 mL/s
  SV, Duration of action: 33 ± 23 min
  TPR (total peripheral vascular resistance), Action of substance: 35 ± 6 mmHg/ml
  TPR (total peripheral vascular resistance), Change: 39 ± 9 mmHg/ml
  TPR (total peripheral vascular resistance), Duration of action: 6 ± 2 min
  dp/dtmax (maximum rate of increase in the left ventricular pressure), Action of substance: 2056 ± 385 mmHg/s
  dp/dtmax (maximum rate of increase in the left ventricular pressure), Change: 1053 ± 333 mmHg/s
  dp/dtmax (maximum rate of increase in the left ventricular pressure), Duration of action: 36 ± 11 min
Anesthetized dogs; 3000 µg/kg intra-venous
  CO, Action of substance: 2.02 ± 0.8 l/M
  CO, Change: 0.87 ± 0.7 l/M
  CO, Duration of action: 3 ± 0.4 min
  HR (heart rate), Action of substance: 169 ± 34 Bts/M
  HR (heart rate), Change: 30 ± 15 Bts/M
  HR (heart rate), Duration of action: 80 ± 44 min
  LVEDP (left ventricular enddiastolic pressure), Action of substance: 2.7 ± 3.8 mmHg
  LVEDP (left ventricular enddiastolic pressure), Change: 2.3 ± 1.7 mmHg
  LVEDP (left ventricular enddiastolic pressure), Duration of action: 104 ± 51 min
  LVSP (left ventricular systolic blood pressure), Action of substance: 98 ± 21 mmHg
  LVSP (left ventricular systolic blood pressure), Change: 55 ± 15 mmHg
  LVSP (left ventricular systolic blood pressure), Duration of action: 128 ± 12 min
  MAP (mean arterial blood pressure), Action of substance: 56 ± 2 mmHg
  MAP (mean arterial blood pressure), Change: 45 ± 5 mmHg
  MAP (mean arterial blood pressure), Duration of action: 118 ± 20 min
  PAP, Action of substance: 14.6 ± 1 mmHg
  PAP, Change: 1.1 ± 0.3 mmHg
  PAP, Duration of action: > 177 min
  SV, Action of substance: 10.6 ± 3.3 mL/s
  SV, Change: 50 ± 0.7 mL/s
  SV, Duration of action: 4 ± 0.0 min
  TPR (total peripheral vascular resistance), Action of substance: 24 ± 7 mmHg/ml
  TPR (total peripheral vascular resistance), Change: 56 ± 7 mmHg/ml
  TPR (total peripheral vascular resistance), Duration of action: 27 ± 21 min
  dp/dtmax (maximum rate of increase in the left ventricular pressure), Action of substance: 1977 ± 537 mmHg/s
  dp/dtmax (maximum rate of increase in the left ventricular pressure), Change: 1395 ± 263 mmHg/s
  dp/dtmax (maximum rate of increase in the left ventricular pressure), Duration of action: > 148 min
Conscious beagle dogs
  HR (heart rate), Action of substance after 1 hours: 98 ± 7 Bts/M
  HR (heart rate), Action of substance after 2 hours: 109 ± 10 Bts/M
  HR (heart rate), Action of substance after 4 hours: 82 ± 7 Bts/M
  HR (heart rate), Action of substance after 6 hours: 78 ± 6 Bts/M
  HR (heart rate), Action of substance after 8 hours: 77 ± 6 Bts/M
  SBP (systolic blood pressure), Action of substance after 1 hours: 97 ± 8 mmHg
  SBP (systolic blood pressure), Action of substance after 2 hours: 95 ± 6 mmHg
  SBP (systolic blood pressure), Action of substance after 4 hours: 106 ± 4 mmHg
  SBP (systolic blood pressure), Action of substance after 6 hours: 113 ± 4 mmHg
  SBP (systolic blood pressure), Action of substance after 8 hours: 121 ± 3 mmHg
Anesthetized rat; Rattus norvegicus, po, 0.5 h, perorally 30 minutes before the lypressin injection, dose column in mg/kg
  ED50: 73.8 mg/kg
Anesthetized rat; perorally at various times before the lypressin injection
  Duration of action at the ED50 dose: 4 h
Mice
  tolerance (clinical symptoms, fatal consequences): without clinical symptoms and without fatal consequences
